According to patent publication US9387198B1 (priority 2015, dated 2016):
One block for each compound: values may come before it.

Tests used:
[1] = Cytotoxicity evaluation by MTT-assay; conditions: mouse, mouse fibroblast (3T3) cells
Method: (§1) Cytotoxicity evaluation was also carried out against mouse fibroblast (3T3) cell-line by employing MTT-assay.

[2] = molecular target: T1, human serum albumin (HSA) (Homo sapiens, UniProt P02768); assay: Fluorescence-based anti-glycation assay (fructose-mediated glycation of HSA); type: biochemical; conditions: compared to reference compound rutin
T1 construct: purchased Sigma Aldrich, St. Louis, Mo., USA
T1 sequence (P02768 25-609): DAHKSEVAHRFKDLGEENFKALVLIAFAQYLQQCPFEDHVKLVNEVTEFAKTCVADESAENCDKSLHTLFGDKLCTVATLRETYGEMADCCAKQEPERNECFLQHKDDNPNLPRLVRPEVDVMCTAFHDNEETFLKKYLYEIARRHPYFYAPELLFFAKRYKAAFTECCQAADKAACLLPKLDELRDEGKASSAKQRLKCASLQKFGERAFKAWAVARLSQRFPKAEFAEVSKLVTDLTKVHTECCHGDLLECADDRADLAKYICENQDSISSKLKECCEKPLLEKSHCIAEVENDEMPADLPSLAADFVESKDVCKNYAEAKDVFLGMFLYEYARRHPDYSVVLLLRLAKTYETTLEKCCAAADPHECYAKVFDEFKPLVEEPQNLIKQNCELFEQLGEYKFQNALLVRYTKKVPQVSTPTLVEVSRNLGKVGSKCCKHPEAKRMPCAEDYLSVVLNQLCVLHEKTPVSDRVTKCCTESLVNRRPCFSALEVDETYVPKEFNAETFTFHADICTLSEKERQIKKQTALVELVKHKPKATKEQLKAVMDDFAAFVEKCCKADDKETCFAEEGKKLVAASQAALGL
Method: Prior to incubation, rutin (reference compound) and 6-nitrobenzimidazole derivatives were added to a reaction mixture to a final concentration of 1 mM. DMSO was used as a solvent (final concentration: 10%) in this assay.
Percentage Inhibition=(1−Fluorescence of test compounds/Fluorescence of glycated-HSA)×100 Where, Test compounds=6-Nitrobenzimidazole derivatives

in vitro = conditions: mouse
Method: as §1

[3] = test system: rat hepatocytes (CC1-Cell line); assay: Fructose-derived AGE-mediated diminished growth of hepatocytes (MTT assay); type: cell-based; conditions: for effect on hepatocytes growth and proliferation (in words) / Percentage Inhibition (remaining growth inhibition of hepatocytes versus normal cells): AGEs 200 μg/mL; for Percentage Inhibition (remaining growth inhibition of hepatocytes versus normal cells): lower = more growth restored; for Absorbance (Average), AGE-mediated diminished growth of the hepatocytes: co-incubated with AGEs 200 μg/mL, 540 nm
Method: The mixture was incubated at 37° C. for 12 weeks under dark sterile environment. […] The cells treated with Triton X-100 were used as a blank, while normal cells remain untreated were used as a control.
MTT Assay: Following 24 hours of incubation, the plate was decanted to remove the medium and the cells were washed with 1×PBS. The MTT-dye (50 μL: 2 mg/mL) was then loaded to each well. 200 μL (final reaction volume) was reconstituted by serum free-MEM (Minimum essential media) in a dark environment. The plate was incubated in 5% CO2 containing incubator at 37° C. for the next 4 hours. At the end of the incubation, the medium was removed and the crystals were dissolved by adding 100 μL DMSO into each well.
Measurement of Absorbance: The intensity of purple colored solution was measured at the wavelength of 540 nm, using Spectra Max Spectrophotometer (Applied Biosystems, CA, USA).
Where, Blank=Triton X-100 treated rat hepatocytes Control=Normal rat hepatocytes Test Compound=6-nitrobenzimidazole derivatives

[4] = test system: rat hepatocytes (CC1-Cell line); assay: Fructose-derived AGE-induced intracellular ROS production (DCFH-DA technique); type: cell-based; conditions: for effect on ROS production (in words): AGE 200 μg/mL; for Fluorescence (Average), AGE-mediated intracellular ROS production: co-incubated with AGEs 200 μg/mL, 24 hours
Method: Procedure of the Assay: Briefly, 6×10^4 cells/mL cells (normal rat hepatocytes: CC1-Cell line) were seeded on a 96-well plate and kept for 24 hours in an incubator, containing 5% CO2 at 37° C. […] Initially the cells were incubated with 10 μM DCFH-DA non fluorescent probe, for 45 mins in the dark environment. […] The control was treated with 0.5% H2O2 just before 1 hour prior to halt the incubation period.
Detection of Fluorescence Intensity: The intensity of fluorescence was measured at an excitation 490 nm and an emission 520 nm, using Spectra Max Spectrophotometer (Applied Biosystems, CA, USA).
Where, Blank=Normal rat hepatocytes Control=Rat hepatocytes treated with 0.5% […] Test compound=6-Nitrobenzimidazole derivative

[5] = Rattus norvegicus, Hepatocyte, 24 h, read-out: Percentage Inhibition of AGE-mediated intracellular ROS production

Compound: O=[N+]([O-])c1ccc2nc(-c3ccc(O)cc3)[nH]c2c1 [Compound 10, 4-(6-Nitro-1H-benzimidazol-2-yl) phenol]
cytotoxicity [1]: 3.6%

Compound: O=[N+]([O-])c1ccc2nc(-c3ccc(O)cc3O)[nH]c2c1 [Compound 7, 4-(6-Nitro-1H-benzimidazol-2-yl)-1,3-benzenediol]
anti-glycation activity (in words) [2]: significant anti-glycation activity
cytotoxicity (in vitro): 37.4%

Compound: O=[N+]([O-])c1ccc2nc(-c3c(O)cc(O)cc3O)[nH]c2c1 [Compound 5, 2-(6-Nitro-1H-benzimidazol-2-yl)-1,3,5-benzenetriol]
cytotoxicity [1]: 4%

anti-glycation activity (in words) [2]: significant anti-glycation activity
Compound: O=[N+]([O-])c1ccc2nc(-c3cc(O)ccc3O)[nH]c2c1 [Compound 2, 2-(6-Nitro-1H-benzimidazol-2-yl)-1,4-benzenediol]
cytotoxicity [1]: 21.1%

anti-glycation activity (in words) [2]: significant anti-glycation activity
Compound: O=[N+]([O-])c1ccc2nc(-c3cccc(O)c3O)[nH]c2c1 [Compound 1, 3-(6-Nitro-1H-benzimidazol-2-yl)-1,2-benzenediol]
cytotoxicity [1]: 35.9%

anti-glycation activity (in words) [2]: significant anti-glycation activity
Compound: O=[N+]([O-])c1ccc2nc(-c3ccc(O)c(O)c3O)[nH]c2c1 [Compound 4, 4-(6-Nitro-1H-benzimidazol-2-yl)-1,2,3-benzenetriol]
effect on hepatocytes growth and proliferation (in words) ([3]; compound 24 μM): significant effect on the growth and proliferation
Percentage Inhibition (remaining growth inhibition of hepatocytes versus normal cells) ([3]; compound 24 μM, 24 hours): 35.8%
Absorbance (Average), AGE-mediated diminished growth of the hepatocytes ([3]; compound 24 μM, 24 hours): 0.91
effect on hepatocytes growth and proliferation (in words) ([3]; compound 33 μM, 24 hours): significantly restored the growth and proliferation
Percentage Inhibition (remaining growth inhibition of hepatocytes versus normal cells) ([3]; compound 33 μM, 24 hours): 34.3%
Absorbance (Average), AGE-mediated diminished growth of the hepatocytes ([3]; compound 33 μM, 24 hours): 0.93
effect on hepatocytes growth and proliferation (in words) ([3]; compound 49 μM): as effective as 33 μM concentration in reducing the toxicity of AGEs
Percentage Inhibition (remaining growth inhibition of hepatocytes versus normal cells) ([3]; compound 49 μM, 24 hours): 22.2%
Absorbance (Average), AGE-mediated diminished growth of the hepatocytes ([3]; compound 49 μM, 24 hours): 1.05
cytotoxicity [1]: 9.8%
inhibition at 24 µM [4, 5]: 63.6%
inhibition at 33 µM [4, 5]: 89.2%
inhibition at 49 µM [4, 5]: 93.4%
effect on ROS production (in words) ([4]; compound 24 μM): moderate activity against ROS production
Fluorescence (Average), AGE-mediated intracellular ROS production ([4]; compound 24 μM): 138.8
effect on ROS production (in words) ([4]; compound 33 μM): significantly impaired the ROS production
Fluorescence (Average), AGE-mediated intracellular ROS production ([4]; compound 33 μM): 97.5
effect on ROS production (in words) ([4]; compound 49 μM): inhibited the AGE-induced ROS production in rat hepatocytes in a remarkably significant manner
Fluorescence (Average), AGE-mediated intracellular ROS production ([4]; compound 49 μM): 90.7

Compound: O=[N+]([O-])c1ccc2nc(-c3ccsc3)[nH]c2c1 [Compound 3, 6-Nitro-2-(3-thienyl)-1H-benzimidazole]
cytotoxicity [1]: 19.7%

Compound: O=[N+]([O-])c1ccc(-c2nc3cc([N+](=O)[O-])ccc3[nH]2)cc1 [Compound 9, 6-Nitro-2-(4-nitrophenyl)-1H-benzimidazole]
cytotoxicity [1]: 45.2%

Compound: Cc1ccc(-c2nc3cc([N+](=O)[O-])ccc3[nH]2)cc1 [Compound 8, 2-(4-Methylphenyl)-6-nitro-1H-benzimidazole]
cytotoxicity [1]: 59.2%

anti-glycation activity (in words) [2]: significant anti-glycation activity
Compound: O=[N+]([O-])c1ccc2nc(-c3ccc(O)c(O)c3)[nH]c2c1 [Compound 6, 4-(6-Nitro-1H-benzimidazol-2-yl)-1,2-benzenediol]
cytotoxicity [1]: 3.4%
